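Protocol summary: plate cells (96-well), add compound at 5 concentrations, incubate 48 h, interpolate endpoints linearly. GI50: concentration for 50% inhibition of growth. TGI: total growth inhibition.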
Tests used:
Test in all cases: NCI-60 cell line screen, 48 h
[1] = system: OVCAR-5 ovarian
[2] = system: HOP-92 NSCLC
[3] = system: DU-145 prostate
[4] = system: MDA-MB-231 breast
[5] = system: HS 578T breast
[6] = system: MDA-MB-435
[7] = system: A498 renal
[8] = system: COLO 205 colon
[9] = system: SK-OV-3 ovarian
[10] = system: A549 NSCLC
[11] = system: SK-MEL-2 melanoma
[12] = system: UO-31 renal
[13] = system: U251 CNS
[14] = system: CAKI-1 renal
[15] = system: LOX IMVI melanoma
[16] = system: HCT-15 colon
[17] = system: KM12 colon
[18] = system: MOLT-4 leukemia
[19] = system: BT-549 breast
[20] = system: 786-0 renal
[21] = system: HCC-2998 colon
[22] = system: NCI-H460 lung
[23] = system: HOP-62 NSCLC
[24] = system: MCF7 breast
[25] = system: RXF 393 renal
[26] = system: RPMI-8226 leukemia
[27] = system: NCI/ADR-RES ovarian
[28] = system: K-562 leukemia
[29] = system: NCI-H23 lung

In the case of `Cc1cc2cc3cc(C)c(N)cc3[n+](C)c2cc1N`, the GI50 [1] is reported as 3.94 µM, the TGI [1] is reported as 16 µM and the GI50 [2] is reported as 1.44 µM. The TGI [2] was 5.99 µM, the GI50 [3] was 1.77 µM and the TGI [3] was 9.64 µM. For the same compound, the GI50 [4] was 1.59 µM, the TGI [4] was 8.39 µM and the GI50 [5] was 1.12 µM. It also gave a TGI [5] of 8.72 µM, a GI50 [6] of 2.21 µM and a TGI [6] of 6.42 µM. The GI50 [7] was 2.54 µM, the TGI [7] was 8.76 µM and the GI50 [8] was 1.15 µM. The TGI [8] was 2.87 µM, the GI50 [9] was 2.09 µM and the TGI [9] was 11 µM. For the same compound, the GI50 [10] was 1 µM, the TGI [10] was 10.9 µM and the GI50 [11] was 3.31 µM. The TGI [11] was 8.1 µM, the GI50 [12] was 2.16 µM and the TGI [12] was 11.6 µM. For the same compound, the GI50 [13] was 0.339 µM, the TGI [13] was 3.17 µM and the GI50 [14] was 3.44 µM. It also gave a TGI [14] of 21.6 µM, a GI50 [15] of 1.35 µM and a TGI [15] of 3.34 µM. For the same compound, the GI50 [16] was 2.65 µM, the TGI [16] was 11.7 µM and the GI50 [17] was 1.1 µM. For the same compound, the TGI [17] was 4.29 µM, the GI50 [18] was 2.58 µM and the TGI [18] was 13.6 µM. The GI50 [19] was 2.34 µM, the TGI [19] was 9.31 µM and the GI50 [20] was 2.6 µM. It also gave a TGI [20] of 11.5 µM, a GI50 [21] of 1.45 µM and a TGI [21] of 4.26 µM. For the same compound, the GI50 [22] was 1.01 µM, the TGI [22] was 3.26 µM and the GI50 [23] was 0.518 µM. For the same compound, the TGI [23] was 4.21 µM, the GI50 [24] was 0.476 µM and the TGI [24] was 6.08 µM. The GI50 [25] was 0.584 µM, the TGI [25] was 4.33 µM and the GI50 [26] was 0.615 µM. It also gave a TGI [26] of 4.57 µM, a GI50 [27] of 5.56 µM and a TGI [27] of 23.4 µM. The GI50 [28] was 1.64 µM, the TGI [28] was 9.47 µM and the GI50 [29] was 1.09 µM.

From PubChem BioAssay (NCI)
